The structures appear in SMILES notation. Read-outs that look alike come from different tables or passages of the source.

This assay deals with NL-RLuc virus. The assay can be described thus: Inhibition of HIV replication (NL-RLuc luciferase reporter virus in MT-2 cells). The format is cell-based. As to conditions: Human immunodeficiency virus 1, MT2, 120 h. An excerpt:
Inhibition of HIV replication: A recombinant NL-RLuc proviral clone was constructed in which a section of the nef gene form NL4-3 was replaced with the Renilla Luciferase gene. This virus is fully infectious and can undergo multiple cycles of replication in cell culture. In addition, the luciferous reporter provides a simple and easy method for quantitating the extent of virus growth and consequently, the antiviral activity of test compounds. The plasmid pNLRLuc contains the proviral NL-Rluc DNA cloned into pUC18 at the PvuII site. The NL-RLuc virus was prepared by transfection of 293T cells with the plasmid pNLRLuc. Transfections were performed using the LipofectAMINE PLUS kit form Invitrogen (Carlsbad, Calif.) according to the manufacturer and the virus generated was titered in MT-2 cells. For susceptibility analyses, the titrated virus was used to infect MT-2 cells in the presence of compound, and after 5 days of incubation, cells were processed and quantitated for virus growth by the amount of expressed luciferase. Assay media was RPMI 1640 supplemented with 10% heat inactivated fetal bovine serum (FBS), 100 units/ml penicillin G/100 units/ml streptomycin, 10 mM HEPES buffer pH 7.55 and 2 mM L-glutamine. The results form at least 2 experiments were used to calculate the EC50 values. Luciferase was quantitated using the Dual Luciferase kit form Promega (Madison, Wis.). Susceptibility of viruses to compounds was determined by incubation in the presence of serial dilutions of the compound. The 50% effective concentration (EC50) was calculated by using the exponential form of the median effect equation where (Fa)=1/[1+(ED50/drug conc.)^m](Johnson V A, Byington R T. Infectivity Assay. In Techniques in HIV Research. ed. Aldovini A, Walker B D. 71-76. New York: Stockton Press. 1990). Activity equal to A refers to a compound having an EC50≤100 nM, while B and C denote compounds having an EC50 between 100 nM and 1 uM (B) or >1 uM (C).

In the case of `Cc1nc(CS(C)(=O)=O)c(-c2ccc(OCCc3ccc(F)cc3)cc2)c(N2CCC(C)(C)CC2)c1[C@H](OC(C)(C)C)C(=O)O` [Example 18, (S)-2-(tert-Butoxy)-2-(4-(4,4-dimethylpiperidin-1-yl)-5-(4-(4-fluorophenethoxy)phenyl)-2-methyl-6-((methylsulfonyl)methyl)pyridin-3-yl)acetic acid], the EC50 (read-out: Activity) was < 0.1 µM.

Turning to `Cc1nc(COCC2CCOCC2)c(-c2ccc(OCCc3ccc(F)cc3)cc2)c(N2CCC(C)(C)CC2)c1[C@H](OC(C)(C)C)C(=O)O` [Example 19, (S)-2-(tert-Butoxy)-2-(4-(4,4-dimethylpiperidin-1-yl)-5-(4-(4-fluorophenethoxy)phenyl)-2-methyl-6-(((tetrahydro-2H-pyran-4-yl)methoxy)methyl)pyridin-3-yl)acetic acid], the EC50 (read-out: Activity) is < 0.1 µM.

As for `Cc1nc(COCc2nc(C)c([C@H](OC(C)(C)C)C(=O)O)c(N3CCC(C)(C)CC3)c2-c2ccc(OCCc3ccc(F)cc3)cc2)sc1C` [Example 20, (S)-2-(tert-Butoxy)-2-(4-(4,4-dimethylpiperidin-1-yl)-6-(((4,5-dimethylthiazol-2-yl)methoxy)methyl)-5-(4-(4-fluorophenethoxy)phenyl)-2-methylpyridin-3-yl)acetic acid], the EC50 (read-out: Activity) was < 0.1 µM.

With `Cc1nc(COCC2CN(C(=O)OC(C)(C)C)C2)c(-c2ccc(OCCc3ccc(F)cc3)cc2)c(N2CCC(C)(C)CC2)c1[C@H](OC(C)(C)C)C(=O)O` [Example 21, (S)-2-(tert-Butoxy)-2-(6-(((1-(tert-butoxycarbonyl)azetidin-3-yl)methoxy)methyl)-4-(4,4-dimethylpiperidin-1-yl)-5-(4-(4-fluorophenethoxy)phenyl)-2-methylpyridin-3-yl)acetic acid], the EC50 (read-out: Activity) is < 0.1 µM.

For `Cc1nc(COCC2CNC2)c(-c2ccc(OCCc3ccc(F)cc3)cc2)c(N2CCC(C)(C)CC2)c1[C@H](OC(C)(C)C)C(=O)O` [Example 22, (S)-2-(6-((Azetidin-3-ylmethoxy)methyl)-4-(4,4-dimethylpiperidin-1-yl)-5-(4-(4-fluorophenethoxy)phenyl)-2-methylpyridin-3-yl)-2-(tert-butoxy)acetic acid], where the note is “read-out: Activity”, the EC50 is < 0.1 µM.

For `CCN(CC)CCOCc1nc(C)c([C@H](OC(C)(C)C)C(=O)O)c(N2CCC(C)(C)CC2)c1-c1ccc(OCCc2ccc(F)cc2)cc1` [Example 23, (S)-2-(tert-Butoxy)-2-(6-((2-(diethylamino)ethoxy)methyl)-4-(4,4-dimethylpiperidin-1-yl)-5-(4-(4-fluorophenethoxy)phenyl)-2-methylpyridin-3-yl)acetic acid], the EC50 (read-out: Activity) was < 0.1 µM.

As to `Cc1nc(COCCN2CCOCC2)c(-c2ccc(OCCc3ccc(F)cc3)cc2)c(N2CCC(C)(C)CC2)c1[C@H](OC(C)(C)C)C(=O)O` [Example 24, (S)-2-(tert-Butoxy)-2-(4-(4,4-dimethylpiperidin-1-yl)-5-(4-(4-fluorophenethoxy)phenyl)-2-methyl-6-((2-morpholinoethoxy)methyl)pyridin-3-yl)acetic acid], the EC50 is, setting by setting: (read-out: Activity) < 0.1 µM; (read-out: EC50 μM) 0.001 µM.

For the compound `Cc1cc(C)n(COCc2nc(C)c([C@H](OC(C)(C)C)C(=O)O)c(N3CCC(C)(C)CC3)c2-c2ccc(OCCc3ccc(F)cc3)cc2)n1` [Example 25, (S)-2-(tert-Butoxy)-2-(6-(((3,5-dimethyl-1H-pyrazol-1-yl)methoxy)methyl)-4-(4,4-dimethylpiperidin-1-yl)-5-(4-(4-fluorophenethoxy)phenyl)-2-methylpyridin-3-yl)acetic acid], the EC50 (read-out: Activity) was < 0.1 µM.

For `Cc1nc(COCN2CCCC2=O)c(-c2ccc(OCCc3ccc(F)cc3)cc2)c(N2CCC(C)(C)CC2)c1[C@H](OC(C)(C)C)C(=O)O` [Example 26, (S)-2-(tert-Butoxy)-2-(4-(4,4-dimethylpiperidin-1-yl)-5-(4-(4-fluorophenethoxy)phenyl)-2-methyl-6-(((2-oxopyrrolidin-1-yl)methoxy)methyl)pyridin-3-yl)acetic acid], where the note is “read-out: Activity”, the EC50 was < 0.1 µM.

On to `Cc1nc(COCCN2CCCCC2)c(-c2ccc(OCCc3ccc(F)cc3)cc2)c(N2CCC(C)(C)CC2)c1[C@H](OC(C)(C)C)C(=O)O` [Example 27, (S)-2-(tert-Butoxy)-2-(4-(4,4-dimethylpiperidin-1-yl)-5-(4-(4-fluorophenethoxy)phenyl)-2-methyl-6-((2-(piperidin-1-yl)ethoxy)methyl)pyridin-3-yl)acetic acid], for which the EC50 (read-out: Activity) is < 0.1 µM.

Take `Cc1nc(COCCN2CCS(=O)(=O)CC2)c(-c2ccc(OCCc3ccc(F)cc3)cc2)c(N2CCC(C)(C)CC2)c1[C@H](OC(C)(C)C)C(=O)O` [Example 28, (S)-2-(tert-Butoxy)-2-(4-(4,4-dimethylpiperidin-1-yl)-6-((2-(1,1-dioxidothiomorpholino)ethoxy)methyl)-5-(4-(4-fluorophenethoxy)phenyl)-2-methylpyridin-3-yl)acetic acid]: the EC50 (read-out: Activity) was < 0.1 µM.

For `Cc1nc(COCC2CCC2)c(-c2ccc(OCCc3ccc(F)cc3)cc2)c(N2CCC(C)(C)CC2)c1[C@H](OC(C)(C)C)C(=O)O` [Example 29, (S)-2-(tert-Butoxy)-2-(6-((cyclobutylmethoxy)methyl)-4-(4,4-dimethylpiperidin-1-yl)-5-(4-(4-fluorophenethoxy)phenyl)-2-methylpyridin-3-yl)acetic acid], the EC50 (read-out: Activity) was < 0.1 µM.

Turning to `Cc1nc(COCC2CC(F)(F)C2)c(-c2ccc(OCCc3ccc(F)cc3)cc2)c(N2CCC(C)(C)CC2)c1[C@H](OC(C)(C)C)C(=O)O` [Example 30, (S)-2-(tert-Butoxy)-2-(6-(((3,3-difluorocyclobutyl)methoxy)methyl)-4-(4,4-dimethylpiperidin-1-yl)-5-(4-(4-fluorophenethoxy)phenyl)-2-methylpyridin-3-yl)acetic acid], under “read-out: Activity”, the EC50 is < 0.1 µM.

Consider `Cc1ncn(Cc2nc(C)c([C@H](OC(C)(C)C)C(=O)O)c(N3CCC(C)(C)CC3)c2-c2ccc(OCCc3ccc(F)cc3)cc2)n1` [Example 31, (S)-2-(tert-Butoxy)-2-(4-(4,4-dimethylpiperidin-1-yl)-5-(4-(4-fluorophenethoxy)phenyl)-2-methyl-6-((3-methyl-1H-1,2,4-triazol-1-yl)methyl)pyridin-3-yl)acetic acid], for which the EC50 by setting is: (read-out: Activity) < 0.1 µM; (read-out: EC50 μM) 0.009 µM.

With `Cc1nc(Cn2ncnc2C)c(-c2ccc(OCCc3ccc(F)cc3)cc2)c(N2CCC(C)(C)CC2)c1[C@H](OC(C)(C)C)C(=O)O` [Example 32, (S)-2-(tert-butoxy)-2-(4-(4,4-dimethylpiperidin-1-yl)-5-(4-(4-fluorophenethoxy)phenyl)-2-methyl-6-((5-methyl-1H-1,2,4-triazol-1-yl)methyl)pyridin-3-yl)acetic acid], the EC50 (read-out: Activity) is < 0.1 µM.

In the case of `Cc1nc(Cn2cnnc2C)c(-c2ccc(OCCc3ccc(F)cc3)cc2)c(N2CCC(C)(C)CC2)c1[C@H](OC(C)(C)C)C(=O)O` [Example 33, (S)-2-(tert-butoxy)-2-(4-(4,4-dimethylpiperidin-1-yl)-5-(4-(4-fluorophenethoxy)phenyl)-2-methyl-6-((3-methyl-4H-1,2,4-triazol-4-yl)methyl)pyridin-3-yl)acetic acid], under “read-out: Activity”, the EC50 is < 0.1 µM.

For `CCOCCOCc1nc(C)c([C@H](OC(C)(C)C)C(=O)O)c(N2CCC(C)(C)CC2)c1-c1ccccc1` [Example 34, (S)-2-(tert-Butoxy)-2-(4-(4,4-dimethylpiperidin-1-yl)-6-((2-ethoxyethoxy)methyl)-2-methyl-5-phenylpyridin-3-yl)acetic acid], under “read-out: Activity”, the EC50 is < 0.1 µM.

The values are drawn from patent US10351546B2, “Pyridin-3-yl acetic acid derivatives as inhibitors of human immunodeficiency virus replication” (priority 2015, dated 2019).
